Assays:
hERG = hERG (Homo sapiens, UniProt Q12809); assay: Inhibition of hERG channel by rubidium efflux assay at 5 ug/ml; format: toxicity
[1] = molecular target: Voltage-gated inwardly rectifying potassium channel KCNH2 (Homo sapiens, UniProt Q12809); assay: Inhibition of hERG channel by voltage clamp assay; format: toxicity
[2] = molecular target: Melanin-concentrating hormone receptor 1 (Homo sapiens, UniProt Q99705); assay: Binding affinity to MCHR1
[3] = AUC (0-6h) in rat at 10 mg/kg, po; format: ADME, organism-based; set-up: time < 6 hr, dose 10 mg/kg, route oral; details: plasma

Chain of Melanin-concentrating hormone receptor 1 (Q99705 whole entry): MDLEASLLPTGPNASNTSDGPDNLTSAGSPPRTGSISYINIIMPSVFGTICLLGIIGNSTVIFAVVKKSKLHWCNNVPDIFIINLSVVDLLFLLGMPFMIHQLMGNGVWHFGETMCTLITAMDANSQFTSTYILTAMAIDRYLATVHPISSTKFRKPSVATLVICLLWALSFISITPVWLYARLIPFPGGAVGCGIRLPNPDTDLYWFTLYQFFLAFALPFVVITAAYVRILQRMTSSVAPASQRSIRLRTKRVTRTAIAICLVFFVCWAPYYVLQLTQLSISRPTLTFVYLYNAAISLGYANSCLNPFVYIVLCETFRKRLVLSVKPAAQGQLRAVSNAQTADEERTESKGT
Chain of hERG (Q12809 whole entry): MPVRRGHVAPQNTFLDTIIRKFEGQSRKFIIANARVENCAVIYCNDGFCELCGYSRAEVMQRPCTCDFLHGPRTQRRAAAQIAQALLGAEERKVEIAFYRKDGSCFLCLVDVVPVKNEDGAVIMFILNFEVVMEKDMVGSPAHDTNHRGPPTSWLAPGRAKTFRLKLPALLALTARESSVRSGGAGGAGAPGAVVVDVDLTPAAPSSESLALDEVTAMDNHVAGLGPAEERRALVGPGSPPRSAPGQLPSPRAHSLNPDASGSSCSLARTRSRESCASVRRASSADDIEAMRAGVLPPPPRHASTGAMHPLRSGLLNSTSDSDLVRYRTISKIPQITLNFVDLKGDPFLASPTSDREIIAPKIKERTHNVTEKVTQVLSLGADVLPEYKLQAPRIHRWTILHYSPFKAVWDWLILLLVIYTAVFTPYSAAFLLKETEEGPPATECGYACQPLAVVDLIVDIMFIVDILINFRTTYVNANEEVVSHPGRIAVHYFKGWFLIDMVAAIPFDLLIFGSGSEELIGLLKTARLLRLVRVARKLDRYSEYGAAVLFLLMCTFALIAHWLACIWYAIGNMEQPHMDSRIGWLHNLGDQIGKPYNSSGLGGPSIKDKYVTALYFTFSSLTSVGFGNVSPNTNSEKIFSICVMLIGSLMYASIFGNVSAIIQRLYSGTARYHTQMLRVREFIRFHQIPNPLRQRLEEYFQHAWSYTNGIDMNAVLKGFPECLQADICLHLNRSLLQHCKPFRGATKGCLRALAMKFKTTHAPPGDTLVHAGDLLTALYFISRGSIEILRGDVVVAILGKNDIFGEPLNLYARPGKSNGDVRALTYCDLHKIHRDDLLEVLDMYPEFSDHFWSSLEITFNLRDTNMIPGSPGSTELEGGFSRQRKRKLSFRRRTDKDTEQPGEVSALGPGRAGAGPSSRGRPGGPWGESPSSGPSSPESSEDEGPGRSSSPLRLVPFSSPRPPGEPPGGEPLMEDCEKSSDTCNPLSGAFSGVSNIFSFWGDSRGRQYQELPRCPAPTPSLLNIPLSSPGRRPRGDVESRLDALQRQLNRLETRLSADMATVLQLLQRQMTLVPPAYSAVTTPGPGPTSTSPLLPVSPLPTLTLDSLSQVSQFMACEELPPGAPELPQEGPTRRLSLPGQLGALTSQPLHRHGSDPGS
Chain of Voltage-gated inwardly rectifying potassium channel KCNH2 (Q12809 whole entry): as above

| Ki [2] | AUC(0-t) at 6 h [3] | Compound | inhibition at 5 ug/ml (hERG) | IC50 [1] |
| --- | --- | --- | --- | --- |
| – | – | CN1CCN(CCCN(C(=O)Nc2ccc(F)c(C(F)(F)F)c2)[C@@H]2CC[C@]3(c4ccc(C#N)cc4)C[C@H]23)CC1 | 86% | 0.052 µM |
| – | – | CN1CCN(CCCN(C(=O)Nc2ccc(F)c(C(F)(F)F)c2)[C@@H]2CC[C@]3(c4ccc5c(N)noc5c4)C[C@H]23)CC1 | 26% | 0.69 µM |
| 0.0027 µM | – | COc1cccc([C@]23CC[C@@H](N(CCCN4CCN(C)CC4)C(=O)Nc4ccc(F)c(Cl)c4)[C@H]2C3)c1 | 70% | – |
| – | – | CN1CCN(CCCN(C(=O)Nc2ccc(F)c(C(F)(F)F)c2)[C@@H]2CC[C@]3(c4ccc(=O)[nH]c4)C[C@H]23)CC1 | 9% | – |
| – | – | CC(=O)Nc1ccc([C@]23CC[C@@H](N(CCCN4CCN(C)CC4)C(=O)Nc4ccc(F)c(Cl)c4)[C@H]2C3)cc1 | 18% | – |
| – | – | CNC(=O)c1ccc([C@]23CC[C@@H](N(CCCN4CCN(C)CC4)C(=O)Nc4ccc(F)c(C(F)(F)F)c4)[C@H]2C3)cc1 | 25% | – |
| – | – | CN1CCN(CCCN(C(=O)Nc2ccc(F)c(Cl)c2)[C@@H]2CC[C@]3(c4cccc(N5CCCC5=O)c4)C[C@H]23)CC1 | 14% | – |
| 0.0068 µM | 0.634 µg·h/mL | CN1CCN(CCCN(C(=O)Nc2ccc(F)c(Cl)c2)[C@@H]2CC[C@]3(c4cccc(NC(=O)C5CC5)c4)C[C@H]23)CC1 | 46% | – |
| 0.0044 µM | – | CN1CCN(CCCN(C(=O)Nc2ccc(F)c(Cl)c2)[C@@H]2CC[C@]3(c4ccc(N)cc4)C[C@H]23)CC1 | 16% | – |
| – | – | CCC(=O)Nc1cccc([C@]23CC[C@@H](N(CCCN4CCN(C)CC4)C(=O)Nc4ccc(F)c(Cl)c4)[C@H]2C3)c1 | 34% | – |
| 0.015 µM | – | CN1CCN(CCCN(C(=O)Nc2ccc(F)c(C(F)(F)F)c2)[C@@H]2CC[C@]3(c4ccc5c(c4)CC(=O)N5)C[C@H]23)CC1 | 50% | – |
| 0.0151 µM | 0.339 µg·h/mL | CC(C)C(=O)Nc1cccc([C@]23CC[C@@H](N(CCCN4CCN(C)CC4)C(=O)Nc4ccc(F)c(Cl)c4)[C@H]2C3)c1 | 37% | – |
| – | – | CN1CCN(CCCN(C(=O)Nc2ccc(F)c(Cl)c2)[C@@H]2CC[C@]3(c4ccc(NC(=O)OC(C)(C)C)cc4)C[C@H]23)CC1 | 87% | – |
| 0.028 µM | 0.127 µg·h/mL | CCNC(=O)Nc1cccc([C@]23CC[C@@H](N(CCCN4CCN(C)CC4)C(=O)Nc4ccc(F)c(Cl)c4)[C@H]2C3)c1 | 17% | – |
| – | – | CN1CCN(CCCN(C(=O)Nc2ccc(F)c(Cl)c2)[C@@H]2CC[C@]3(c4cccc(N5CCC5)c4)C[C@H]23)CC1 | 29% | – |
| – | – | COc1ccc([C@]23CC[C@@H](N(CCCN4CCN(C)CC4)C(=O)Nc4ccc(F)c(C(F)(F)F)c4)[C@H]2C3)cn1 | 36% | – |
| 0.046 µM | – | CN1CCN(CCCN(C(=O)Nc2ccc(F)c(C(F)(F)F)c2)[C@@H]2CC[C@]3(c4ccc5onc(N)c5c4)C[C@H]23)CC1 | 46% | – |
| – | – | CN1CCN(CCCN(C(=O)Nc2ccc(F)c(Cl)c2)[C@@H]2CC[C@]3(c4ccc(F)cc4)C[C@H]23)CC1 | 87% | – |
| – | – | CN1CCN(CCCN(C(=O)Nc2ccc(F)c(C(F)(F)F)c2)[C@@H]2CC[C@]3(c4ccc(S(C)(=O)=O)cc4)C[C@H]23)CC1 | 46% | – |
| – | – | CN1CCN(CCCN(C(=O)Nc2ccc(F)c(Cl)c2)[C@@H]2CC[C@]3(c4ccccc4)C[C@H]23)CC1 | 58% | – |
| 0.0096 µM | – | CN1CCN(CCCN(C(=O)Nc2ccc(F)c(Cl)c2)[C@@H]2CC[C@]3(c4cccc(N)c4)C[C@H]23)CC1 | 25% | – |
| – | – | CC(=O)Nc1cccc([C@]23CC[C@@H](N(CCCN4CCN(C)CC4)C(=O)Nc4ccc(F)c(Cl)c4)[C@H]2C3)c1 | 19% | – |
| – | – | CN1CCN(CCCN(C(=O)Nc2ccc(F)c(C(F)(F)F)c2)[C@@H]2CC[C@]3(c4nccs4)C[C@H]23)CC1 | 27% | – |
| – | – | CN1CCN(CCCN(C(=O)Nc2ccc(F)c(C(F)(F)F)c2)[C@@H]2CC[C@]3(c4ccsc4)C[C@H]23)CC1 | 75% | – |
| – | – | CN1CCN(CCCN(C(=O)Nc2ccc(F)c(Cl)c2)[C@@H]2CC[C@]3(c4cccnc4)C[C@H]23)CC1 | 97% | – |
| – | – | CN1CCN(CCCN(C(=O)Nc2ccc(F)c(Cl)c2)[C@@H]2CC[C@]3(c4cccc(NC(=O)C(C)(C)C)c4)C[C@H]23)CC1 | 27% | – |
| – | – | COC(=O)c1ccc([C@]23CC[C@@H](N(CCCN4CCN(C)CC4)C(=O)Nc4ccc(F)c(C(F)(F)F)c4)[C@H]2C3)cc1 (single isomer, unassigned) | 63% | – |

— ChEMBL document CHEMBL1146860, “Bicyclo[3.1.0]hexyl urea melanin concentrating hormone (MCH) receptor-1 antagonists: impacting hERG liability via aryl modifications” (Bioorg Med Chem Lett, 2006)
